We go through 16 molecules from patent US9163018B2, “Method of treatment of age-related macular degeneration (AMD)” (Prana Biotechnology Limited, priority 2006, dated 2015).

SMILES strings stand for the structures.

Data set [1] is described as follows: Toxicity, visual observations in mice. Conditions: duration and visual observations.
Data set [2] deals with primary cortical neuronal cultured cells. The data set can be described thus: Test compound cytotoxicity, MTS assay, primary cortical neuronal cultures. The class given is cell-based, mouse. Conditions: for Cytotox (% viable) Neuronal cells at 1 μM: 1 μM test compound; for Cytotox (% viable) Neuronal cells at 10 μM: 10 μM test compound. In a few lines:
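Primary cortical neurons were cultured five days in Neurobasal/B27, then exposed on day six to compounds (from 2.5 mM DMSO stocks) in medium minus antioxidants, in triplicate for 4 days at 37° C. Viability was measured by MTS, 2 h at 37° C, absorbance at 560 nm.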
On the technique in general: Tetrazolium assays rely on reduction of a dye to a coloured formazan, in cell work by metabolically active cells.

A short description of data set [3]: Mice plasma concentration after oral dose. The class given is in vivo. Conditions: for Mice plasma concentration: 30 min to 4 h after single or repeat oral dose of 30 mg/kg; for Mice plasma concentration at 10 mg/kg: oral dose 10 mg/kg.
Data set [4] deals with T1, Abeta:Zn (25:50 μM) Synthetic Aggregations (Homo sapiens, UniProt P05067).
T1 construct: PB Compound Mediated Dissolution of Aggregated Abeta 1-42; purchased Keck Laboratory, Yale University School of Medicine
T1 sequence (P05067 672-713 limits assumed): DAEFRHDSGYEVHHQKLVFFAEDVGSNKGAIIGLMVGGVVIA
Nature of the data set: Disaggregation of Abeta:Zn synthetic aggregates (ThT fluorescence). The class given is biochemical. Conditions: for Disaggregation % Aggregate reduction at 5 μM: 5 μM test compound; for EC50: Abeta:Zn 25:50 μM aggregates. In a few lines: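 ThT signal (excitation 450 nm, emission 480 nm) measured after compounds at final 1, 5, 10, 25 and 50 μM acted 2 h at 37 degrees on preformed aggregates. Those aggregates came from 24 h rotating incubation of 25 μM Abeta1-42, 50 μM ZnCl2 and 50 μM ThT in PBS pH 6.6.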

Data set [5] concerns the target T2, Aβ 1-42 (Homo sapiens, UniProt P05067).
T2 construct: The reaction solutions contained Aβ 1-42 at concentrations
The data set can be described thus: Fluorometric H2O2 assay (inhibition of Abeta H2O2 production). Conditions: concentration required to inhibit 50% of Abeta H2O2 production; read-out: H2O2 IC50. The format is biochemical. In a few lines: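 Reactions in PBS pH 7.4 at 37 C for 60 min, containing Aβ, copper and test compound. H2O2 output read as fluorescence of HRP-coupled deacetylated DCF. Fluorescence converted to H2O2 concentration via H2O2 standards.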

Data set [6] deals with M17 human neuroblastoma cells. Nature of the data set: Cytotoxicity, M17 human neuroblastoma cells. The class given is cell-based. Conditions: for Cytotox (% viable) M17 cells at 1 μM: 1 μM test compound; for Cytotox (% viable) M17 cells at 10 μM: 10 μM test compound. How it is done: Assay 3. MTS Assay for Cell Viability
Cell viability is determined using the MTS assay. Culture medium is replaced with fresh neurobasal medium plus B27 supplements minus antioxidants. 1/10th volume MTS solution (Cell Titre 96 Aqueous One, Promega Corporation) and incubated at 37° C., 2 hrs. 200 microliter aliquots are measured with a spectrophotometer at 560 nm.

T2 sequence (P05067 672-713 limits assumed): as above

Regarding `O=c1c(-c2ccc(Cl)cc2)cnc2c(O)c(I)ccn12` [PB 1063], the “Toxicity at 30 mg/kg” value in data set [1] is 10 days, mild toxic signs. For the same molecule, in data set [2], the “Cytotox (% viable) Neuronal cells at 1 μM” value is recorded as 41% and the “Cytotox (% viable) Neuronal cells at 10 μM” value was 33%. Besides, the Mice plasma concentration result in data set [3] is listed as “Up to 450 ng/ mL in mice ng/mL”. Besides, in data set [4], the “Disaggregation % Aggregate reduction at 5 μM” value was 40.5% and the EC50 was 19700 nM.
`CN(C)Cc1cnc2c(Cl)cc(Cl)c(O)c2n1.Cl` [PB 1066]: in data set [2], the “Cytotox (% viable) Neuronal cells at 1 μM” value amounted to 92% and the “Cytotox (% viable) Neuronal cells at 10 μM” value is 95%. In addition, in data set [3], the Mice plasma concentration entry is reported as “Up to 1000 ng/mL in mice”. In data set [4], the “Disaggregation % Aggregate reduction at 5 μM” value was determined as 35% and the half-maximal effective concentration (EC50) is greater than 50000 nM. For the same molecule, the concentration for half-maximal inhibition (IC50) in data set [5] was greater than 10000 nM.
`Oc1c(C2CC2)ncc2cccnc12` [PB 1073]: the “Toxicity at 30 mg/kg” value in data set [1] is reported as 6 days, none. In data set [2], the “Cytotox (% viable) Neuronal cells at 1 μM” value was 100% and the “Cytotox (% viable) Neuronal cells at 10 μM” value turned out to be 98%. Besides, the Mice plasma concentration entry in data set [3] was “Up to 350 ng/ mL in mice ng/mL”. Besides, in data set [4], the “Disaggregation % Aggregate reduction at 5 μM” value amounted to 50% and the 50% effective concentration (EC50) was determined as 4700 nM. Further, the IC50 in data set [5] amounted to 520 nM.
For `CCn1nccc1-n1cnc2c(O)c(Cl)cc(Cl)c2c1=O` [PB 1088], in data set [1], the “Toxicity at 30 mg/kg” value was 10 days, none. For the same molecule, in data set [2], the “Cytotox (% viable) Neuronal cells at 1 μM” value came to 102% and the “Cytotox (% viable) Neuronal cells at 10 μM” value stood at 94%. Further, in data set [3], the Mice plasma concentration entry is on record as “Up to 3896 ng/ mL ng/mL”. In addition, in data set [4], the “Disaggregation % Aggregate reduction at 5 μM” value is given as 16.4% and the 50% effective concentration (EC50) was greater than 20000 nM.
`Cc1ccc(-n2cnc3c(O)c(Cl)cc(Cl)c3c2=O)nc1` [PB 1089]: in data set [1], the “Toxicity at 30 mg/kg” value was 10 days, none. For the same molecule, in data set [2], the “Cytotox (% viable) Neuronal cells at 1 μM” value worked out at 96% and the “Cytotox (% viable) Neuronal cells at 10 μM” value was 83%. In addition, the Mice plasma concentration entry in data set [3] was “Up to 39 ng/ mL ng/mL”. In data set [4], the “Disaggregation % Aggregate reduction at 5 μM” value is listed as 16.4% and the EC50 is greater than 20000 nM.
Take `O=c1c2c(Cl)cc(Cl)c(O)c2ncn1CCc1ccccn1` [PB 1091]: the “Toxicity at 30 mg/kg” value in data set [1] is 10 days, none. In data set [2], the “Cytotox (% viable) Neuronal cells at 1 μM” value was 100% and the “Cytotox (% viable) Neuronal cells at 10 μM” value turned out to be 92%. For the same molecule, in data set [3], the Mice plasma concentration entry is “Up to 59 ng/ mL ng/mL”. In data set [4], the “Disaggregation % Aggregate reduction at 5 μM” value is given as 23.4% and the EC50 was greater than 20000 nM.
On to `COc1ccc(-n2cnc3c(O)c(Cl)cc(Cl)c3c2=O)cn1` [PB 1093], for which the “Toxicity at 30 mg/kg” value in data set [1] is listed as 10 days, none. Also, in data set [2], the “Cytotox (% viable) Neuronal cells at 1 μM” value was determined as 122% and the “Cytotox (% viable) Neuronal cells at 10 μM” value came to 93%. Besides, the Mice plasma concentration result in data set [3] is “Up to 80 ng/ mL ng/mL”. In addition, in data set [4], the “Disaggregation % Aggregate reduction at 5 μM” value was found to be 16% and the half-maximal effective concentration (EC50) is greater than 20000 nM.
Regarding `Br.CC(C)n1cnc2c(O)c(Cl)cc(Cl)c2c1=O` [PB 1108], the “Toxicity at 30 mg/kg” value in data set [1] is recorded as 10 days, none. Also, in data set [2], the “Cytotox (% viable) Neuronal cells at 1 μM” value was found to be 104% and the “Cytotox (% viable) Neuronal cells at 10 μM” value is on record as 71%. The Mice plasma concentration entry in data set [3] was “Up to 383 ng/ mL ng/mL”. Also, in data set [4], the “Disaggregation % Aggregate reduction at 5 μM” value came out at 46.5% and the half-maximal effective concentration (EC50) was greater than 20000 nM. For the same molecule, in data set [6], the “Cytotox (% viable) M17 cells at 1 μM” value came to 94.3% and the “Cytotox (% viable) M17 cells at 10 μM” value amounted to 74.5%.
Take `CCCn1cnc2c(O)c(I)ccc2c1=O` [PB 1119]: the “Toxicity at 30 mg/kg” value in data set [1] was 10 days, none. In addition, in data set [3], the Mice plasma concentration entry is listed as “Up to 1096 ng/ mL ng/mL”. In data set [4], the “Disaggregation % Aggregate reduction at 5 μM” value stood at 51.5% and the midpoint of the response, the EC50, lay at 2720 nM. Further, the IC50 in data set [5] came to 280 nM.
As to `O=c1c2ccc(I)c(O)c2ncn1Cc1ccccn1` [PB 1122], the “Toxicity at 30 mg/kg” value in data set [1] is 10 days, none. Moreover, in data set [3], the Mice plasma concentration entry is on record as “Up to 1538 ng/ mL ng/mL”. Besides, in data set [4], the “Disaggregation % Aggregate reduction at 5 μM” value was 62.4% and the midpoint of the response, the EC50, lay at 660 nM. Further, the IC50 in data set [5] is 520 nM. For the same molecule, in data set [6], the “Cytotox (% viable) M17 cells at 1 μM” value is given as 97.5% and the “Cytotox (% viable) M17 cells at 10 μM” value turned out to be 79.5%.
On to `CCn1cnc2c(O)c(I)ccc2c1=O` [PB 1123], for which the “Toxicity at 30 mg/kg” value in data set [1] is 10 days, none. Also, in data set [4], the “Disaggregation % Aggregate reduction at 5 μM” value was determined as 25% and it took 910 nM to reach a half-maximal effect (EC50). Besides, the concentration for half-maximal inhibition (IC50) in data set [5] came out at 290 nM.
Consider `O=c1c2c(Cl)cc(I)c(O)c2ncn1CC1CC1` [PB 1140], for which the “Toxicity at 10 mg/kg” value in data set [1] is on record as “At 10 mg/kg 10 days, none”. Besides, the “Mice plasma concentration at 10 mg/kg” value in data set [3] was “At 10 mg/kg: Up to 2315 ng/ ml ng/mL”. For the same molecule, in data set [4], the “Disaggregation % Aggregate reduction at 5 μM” value is recorded as 64% and the EC50 is 3500 nM. In data set [5], the half-maximal inhibitory concentration (IC50) turned out to be 360 nM. In addition, in data set [6], the “Cytotox (% viable) M17 cells at 1 μM” value turned out to be 92.4% and the “Cytotox (% viable) M17 cells at 10 μM” value was determined as 98.2%.
`CCCCc1cnc2c(O)cccn2c1=O` [PB 1144]: the “Toxicity at 30 mg/kg” value in data set [1] is 10 days, none. In data set [4], the “Disaggregation % Aggregate reduction at 5 μM” value is 15.5% and a half-maximal response (EC50) required 9100 nM. Further, the IC50 in data set [5] was determined as 320 nM. Besides, in data set [6], the “Cytotox (% viable) M17 cells at 1 μM” value was 73.6% and the “Cytotox (% viable) M17 cells at 10 μM” value came out at 37%.
With `CC(C)Cn1cnc2c(O)c(I)ccc2c1=O` [PB 1152], in data set [1], the “Toxicity at 10 mg/kg” value is reported as “At 10 mg/kg 10 days, none”. Further, the “Mice plasma concentration at 10 mg/kg” value in data set [3] is recorded as “At 10 mg/kg: Up to 309 ng/ml ng/mL”. Moreover, in data set [4], the “Disaggregation % Aggregate reduction at 5 μM” value is recorded as 56% and the EC50 was greater than 20000 nM. Moreover, the half-maximal inhibitory concentration (IC50) in data set [5] came to 310 nM. Further, in data set [6], the “Cytotox (% viable) M17 cells at 1 μM” value amounted to 95.7% and the “Cytotox (% viable) M17 cells at 10 μM” value turned out to be 71.2%.
Regarding `CN(C)Cc1ccc2c(Cl)cc(I)c(O)c2n1` [PB 1177], the “Toxicity at 30 mg/kg” value in data set [1] is listed as 1 day, 3/4 deaths. Besides, in data set [4], the “Disaggregation % Aggregate reduction at 5 μM” value is given as 79% and the 50% effective concentration (EC50) was 2400 nM. The IC50 in data set [5] stood at 290 nM. In data set [6], the “Cytotox (% viable) M17 cells at 1 μM” value turned out to be 97.9% and the “Cytotox (% viable) M17 cells at 10 μM” value was 24.4%.
Regarding `CCc1c(O)c(O)cc[n+]1CC.[Cl-]` [PB 1270], the “Toxicity at 30 mg/kg” value in data set [1] is given as 10 days, none. Further, the “Mice plasma concentration at 120 mg/kg” value in data set [3] (120 mg/kg) is no more than 4455 ng/mL. In addition, the Mice plasma concentration in data set [3] is recorded as no more than 493.7 ng/mL. Moreover, in data set [6], the “Cytotox (% viable) M17 cells at 1 μM” value is 102.8% and the “Cytotox (% viable) M17 cells at 10 μM” value stood at 108.3%.

Usually EC50 stands for the concentration needed to bring the measured effect to its halfway point. The low end stands for a more potent agent, the high end for a less potent agent. As a reminder, the IC50 is the concentration that gives 50% inhibition.
